# Measured values as given in PubChem BioAssay AID1918944 (Molecular Pharmacology Branch, DTP, NCI, 2023).
# Where “and” joins values, the source holds several entries; their conditions need not be identical. Identical values can stand only once.
# Tested on: 786-0 complex spheroid viability
# Assay: Anticancer human tumor 786-0 cell line growth inhibition;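 further: spheroids exposed to agents for seven days before readout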
# Settings: for viability, T/C: stronger effect = lower value
# Text: Multicellular complex tumor spheroid response to LSD1 Inhibitor Iadademstat in combination with a variety of drugs and investigational agents in selected tumor cell lines
# The current study was undertaken to assess response to LSD1 inhibitors in combination with standard-of-care drugs and investigational agents in solid tumor complex spheroid models as well as in the K-562 leukemia. Complex spheroids include a stromal component modeled by human endothelial cells (HUVEC) and fibroblasts modeled by human mesenchymal stem cells (MSCs). The concentration ranges selected for each drug and investigational agent were based upon clinically achievable concentrations if the clinical Cmax of the agent was known.
# Compounds. The drugs and investigational agents used in this study are listed on Table 1. All of the agents used, including staurosporine (NSC755774) and gemcitabine (NSC613327), were obtained from the Developmental Therapeutics Program, NCI. FDA-approved anticancer drugs are available from the NCI at http://dtp.nci.nih.gov/branches/dscb/oncology_drugset_explanation.html. Drugs and investigational agents were >95% pure by proton nuclear magnetic resonance (NMR) and liquid chromatography/mass spectrometry (LC/MS). Stock solutions were prepared at 400x in DMSO, stored at -70 degrees C, and diluted in fresh medium prior to their use. The final concentration of DMSO in cell culture wells never exceeded 0.25% (v/v). The FDA-approved anticancer drug set is available from the Developmental Therapeutics Program at https://dtp.cancer.gov/organization/dscb/obtaining/available_plates.htm. All drugs and investigational agents were tested over a range starting from a high concentration at or near the clinical Cmax and decreasing in half-log increments. If the clinical Cmax for an agent had not been determined, the highest concentration tested was 10 microM.
# Cell Lines. The patient-derived cancer cell (PDC) lines: 292921-168-R-J2-PDC, K24384-001-R-PDC, and 521955-158-R2-J5-PDC pancreatic carcinomas, 556581-035-R-J1 ovarian carcinoma, 324938-238-R-J1-PDC, 855422-203-R-J1-PDC and 883617-216-R-J1-PDC urothelial bladder carcinomas, 743489-274-T-PDC renal cell carcinoma, 138582-R-J1 Merkel cell tumor, K60290-347-R-J1 and K57222-313-R-J1-PDC glioblastomas, 653999-131-R-J2-PDC, LG0703-F948-PDC, and 349418-098-R-PDC non-small cell lung carcinomas, 885512-296-R-J2-PDC, 171881-019-R-J1-PDC breast carcinomas and 186277-243-T-J2-PDC and 233499-124-R-J2-PDC colon carcinomas were obtained from the NCI Patient-Derived Models Repository (PDMR, https://pdmr.cancer.gov). The established cell lines NCI/ADR-RES (RRID:CVCL_14520 and OVCAR-5 (RRID:CVCL_1628) ovarian carcinomas, 786-O (RRID:CVCL_1051) and A498 (RRID:CVCL_A498) renal cell carcinoma, NCI-H211 (ATCC, cat. CRL-5824; RRID:CVCL_1529), NCI-H196 (ATCC, cat. CRL-5823, RRID:CVCL_1509), SW 1271 (ATCC, cat. CRL-2177, RRID:CVCL_1716) and NCI-H1876 (ATCC, cat. CRL-5902, RRID:CVCL_1503) small cell lung carcinomas, MDA-MB-231 (RRID:CVCL_0062) and MDA-MB-468 (RRID:CVCL_0419)breast carcinomas (10-12). Pooled donor human umbilical vein endothelial cells (HUVEC, Lonza, cat. CC-2519) and human mesenchymal stem cells (hMSC, Lonza, cat. PT-2501) were purchased from Lonza (Walkersville, MD).
# Cell Culture. All cells were maintained in an incubator at 37 degrees C and 5% CO2 with 95% humidity. The PDC lines were cultured according to standard operating procedures established by the NCI PDMR (https://pdmr.cancer.gov). Briefly all PDCs were thawed and cultured in Matrigel-coated flasks prepared with a working solution of 1X Ham's F-12 nutrient mix, without supplementation (Invitrogen, Waltham, MA, cat. 11765054), 100 U/mL penicillin-streptomycin (Invitrogen, cat. 15140122), and 2.5% Matrigel (Corning Inc., Corning, NY, cat. 354248) for the first three passages. […]
smiles,measurement,setting,value
O=C(C=Cc1cccc(S(=O)(=O)Nc2ccccc2)c1)NO + NC1CCC(NC2CC2c2ccccc2)CC1,IC50,"curve of first compound, second compound 0.1 µM",942 nM
same,IC50,"curve of first compound, second compound 0.316 µM",1020 nM
same,IC50,"curve of first compound, second compound 1 µM",912 nM
same,IC50,"curve of first compound, second compound 3.16 µM",653 nM
same,IC50,"curve of first compound, second compound 10 µM",446 nM
same,"viability, T/C","second compound 0.1 µM, first compound 0.00949 µM",112%
same,"viability, T/C","second compound 0.1 µM, first compound 0.03 µM",109%
same,"viability, T/C","second compound 0.1 µM, first compound 0.0949 µM",107%
same,"viability, T/C","second compound 0.1 µM, first compound 0.3 µM",99.6%
same,"viability, T/C","second compound 0.1 µM, first compound 0.949 µM",49.6%
same,"viability, T/C","second compound 0.1 µM, first compound 3 µM",6.03%
same,"viability, T/C","second compound 0.316 µM, first compound 0.00949 µM",113%
same,"viability, T/C","second compound 0.316 µM, first compound 0.03 µM",111%
same,"viability, T/C","second compound 0.316 µM, first compound 0.0949 µM",112%
same,"viability, T/C","second compound 0.316 µM, first compound 0.3 µM",104%
same,"viability, T/C","second compound 0.316 µM, first compound 0.949 µM",53.2%
same,"viability, T/C","second compound 0.316 µM, first compound 3 µM",5.39%
same,"viability, T/C","second compound 1 µM, first compound 0.00949 µM",107%
same,"viability, T/C","second compound 1 µM, first compound 0.03 µM",107%
same,"viability, T/C","second compound 1 µM, first compound 0.0949 µM",110%
same,"viability, T/C","second compound 1 µM, first compound 0.3 µM",92.8%
same,"viability, T/C","second compound 1 µM, first compound 0.949 µM",48.7%
same,"viability, T/C","second compound 1 µM, first compound 3 µM",5.27%
same,"viability, T/C","second compound 3.16 µM, first compound 0.00949 µM",96%
same,"viability, T/C","second compound 3.16 µM, first compound 0.03 µM",101%
same,"viability, T/C","second compound 3.16 µM, first compound 0.0949 µM",93.8%
same,"viability, T/C","second compound 3.16 µM, first compound 0.3 µM",81.9%
same,"viability, T/C","second compound 3.16 µM, first compound 0.949 µM",34.8%
same,"viability, T/C","second compound 3.16 µM, first compound 3 µM",6.76%
same,"viability, T/C","second compound 10 µM, first compound 0.00949 µM",80.5%
same,"viability, T/C","second compound 10 µM, first compound 0.03 µM",77%
same,"viability, T/C","second compound 10 µM, first compound 0.0949 µM",76.4%
same,"viability, T/C","second compound 10 µM, first compound 0.3 µM",60.7%
same,"viability, T/C","second compound 10 µM, first compound 0.949 µM",29.1%
same,"viability, T/C","second compound 10 µM, first compound 3 µM",2.25%
O=C(c1cc(Cc2n[nH]c(=O)c3ccccc23)ccc1F)N1CCN(C(=O)C2CC2)CC1,"viability, T/C",compound 0.0316 µM,103%
same,"viability, T/C",compound 0.1 µM,103%
same,"viability, T/C",compound 0.316 µM,104% and 103%
same,"viability, T/C",compound 1 µM,96.8% and 102%
same,"viability, T/C",compound 3.16 µM,85% and 97%
same,"viability, T/C",compound 10 µM,61.8% and 74.5%
same,IC50,curve of compound,> 10000 nM
